Test results: US20080176866A1, “NOVEL HETARYL-PHENYLENEDIAMINE-PYRIMIDINES AS PROTEIN KINASE INHIBITORS” (priority 2006, published 2008)

Key:
[1] = biological target: T1, CDK2/CycE (Homo sapiens, UniProt P24941); test: CDK2/CycE kinase assay (HTRF); format: biochemical; conditions: 10 μM ATP
T1 construct: GST; purchased ProQinase GmbH, Freiburg; host or cells: baculovirus-infected insect cells (Sf9)
Procedure: The CDK2/CycE inhibitory activity of the substances of this invention was measured in the CDK2/CycE-HTRF assay (HTRF=Homogeneous Time Resolved Fluorescence) described in the following paragraphs.
Recombinant CDK2-GST and CycE-GST fusion proteins purified from baculovirus-infected insect cells (Sf9) were purchased from ProQinase GmbH, Freiburg. The substrate used for the kinase reaction was the biotinylated peptide biotin-Ttds-YISPLKSPYKISEG (C terminus in amide form) which can be purchased for example from JERINI Peptide Technologies (Berlin).
CDK2/CycE was incubated in the presence of various concentrations of test substances in 5 μL of assay buffer [50 mM Tris/HCl pH 8.0, 10 mM MgCl2, 1.0 mM dithiothreitol, 0.1 mM sodium orthovanadate, 10 μM adenosine triphosphate (ATP), 0.75 μM substrate, 0.01% (v/v) Nonidet-P40 (Sigma), 1% (v/v) dimethyl sulphoxide] at 22° C. for 60 min. The concentration of CDK2/CycE was adapted to the particular activity of the enzyme and adjusted so that the assay operated in the linear range. Typical concentrations were in the region of 1 ng/ml. The reaction was stopped by adding 5 μl of a solution of HTRF detection reagents (0.2 μM streptavidin-XLent and 3.4 nM phospho-(Ser) CDKs substrate antibody [product #2324B, Cell Signaling Technology, Danvers, Mass., USA] and 4 nM Prot-A-EuK [protein A labelled with Europium cryptate from C is biointernational, France, product No. 61 PRAKLB]) in aqueous EDTA solution (100 mM EDTA, 800 mM KF, 0.2% (w/v) bovine serum albumin (BSA) in 100 mM HEPES/NaOH pH 7.0).
(§1) The resulting mixture was incubated at 22° C. for 1 h in order to allow formation of a complex of the biotinylated phosphorylated substrate and the detection reagents. The amount of phosphorylated substrate was then estimated by measuring the resonance energy transfer from the Prot-A-EuK to the streptavidin-XLent. For this purpose, the fluorescence emissions at 620 nm and 665 nm after excitation at 350 nm were measured in an HTRF measuring instrument, e.g. a Rubystar (BMG Labtechnologies, Offenburg, Germany) or a Viewlux (Perkin-Elmer). The ratio of the emissions at 665 nm and at 622 nm was taken as a measure of the amount of phosphorylated substrate. The data were normalized (enzymic reaction without inhibitor=0% inhibition, all other assay components but no enzyme=100% inhibition) and IC50 values were calculated with a 4-parameter fit using an inhouse software.

[2] = biological target: T2, KDR kinase (Homo sapiens, UniProt P35968); test: KDR kinase assay (HTRF); format: biochemical; conditions: KDR kinase-GST, 10 μM ATP
T2 construct: GST; purchased ProQinase GmbH, Freiburg; host or cells: baculovirus-infected insect cells (Sf9)
Procedure: The KDR-inhibitory activity of the substances of this invention was measured in the KDR-HTRF assay (HTRF=Homogeneous Time Resolved Fluorescence) described in the following paragraphs.
Recombinant KDR kinase-GST fusion protein purified from baculovirus-infected insect cells (Sf9) was purchased from ProQinase GmbH, Freiburg. The substrate used for the kinase reaction was the biotinylated peptide biotin-Ahx-DFGLARDMYDKEYYSVG (C terminus in acid form) which can be purchased for example from Biosynthan GmbH (Berlin-Buch, Germany).
KDR kinase was incubated in the presence of various concentrations of test substances in 5 μL of assay buffer [50 mM Hepes/NaOH pH 7.0, 25 mM MgCl2, 5 mM MnCl2, 1.0 mM dithiothreitol, 0.1 mM sodium orthovanadate, 10 μM adenosine triphosphate (ATP), 0.5 μM substrate, 0.001% (v/v) Nonidet-P40 (Sigma), 1% (v/v) dimethyl sulphoxide] at 22° C. for 45 min. The concentration of KDR was adapted to the particular activity of the enzyme and adjusted so that the assay operated in the linear range. The reaction was stopped by adding 5 μl of a solution of HTRF detection reagents (0.1 μM streptavidin-XLent and 2 nM PT66-Eu chelate, a Europium chelate-labelled anti-phospho-tyrosine antibody from Perkin Elmer) in aqueous EDTA solution (125 mM EDTA, 0.2% (w/v) bovine serum albumin (BSA) in 50 mM HEPES/NaOH pH 7.0).
as §1, with “of” for “of a complex of”, “streptavidin-XLent and PT66-Eu chelate.” for “detection reagents.”, “PT66-Eu chelate” for “Prot-A-EuK”

[3] = biological target: T3, human Aurora-C (Homo sapiens, UniProt Q9UQB9); test: Aurora-C kinase assay (HTRF); format: biochemical; conditions: GST-human Aurora-C, 10 μM ATP
T3 construct: GST; made in house; host or cells: transiently transfected HEK293 cells
T3 sequence (Q9UQB9 1-309): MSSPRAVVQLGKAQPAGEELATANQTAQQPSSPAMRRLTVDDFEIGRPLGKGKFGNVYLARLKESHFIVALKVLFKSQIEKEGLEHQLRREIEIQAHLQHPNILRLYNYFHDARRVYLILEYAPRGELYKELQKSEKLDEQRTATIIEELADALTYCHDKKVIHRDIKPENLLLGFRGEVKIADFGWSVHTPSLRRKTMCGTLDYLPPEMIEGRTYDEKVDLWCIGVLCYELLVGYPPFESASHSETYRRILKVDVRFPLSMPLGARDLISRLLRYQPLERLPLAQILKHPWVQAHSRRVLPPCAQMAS
Procedure: The Aurora-C inhibitory activity of the substances of this invention was measured in the Aurora-C-HTRF assay (HTRF=Homogeneous Time Resolved Fluorescence) described in the following paragraphs.
Recombinant fusion protein of GST and human Aurora-C was expressed in transiently transfected HEK293 cells and purified by affinity chromatography on glutathione-Sepharose. The substrate used for the kinase reaction was the biotinylated peptide biotin-Ttds-FMRLRRLSTKYRT (C terminus in amide form) which can be purchased for example from JERINI Peptide Technologies (Berlin). Aurora-C was incubated in the presence of various concentrations of test substances in 5 μL of assay buffer [25 mM Hepes/NaOH pH 7.4, 0.5 mM MnCl2, 2.0 mM dithiothreitol, 0.1 mM sodium orthovanadate, 10 μM adenosine triphosphate (ATP), […] substrate, 0.01% (v/v) TritonX-100 (Sigma), 0.05% (w/v) bovine serum albumin (BSA), 1% (v/v) dimethyl sulphoxide] at 22° C. for 60 min. The concentration of Aurora-C was adapted to the particular activity of the enzyme and adjusted so that the assay operated in the linear range. Typical concentrations were in the region of 0.3 nM. The reaction was stopped by adding 5 μl of a solution of HTRF detection reagents (0.2 μM streptavidin-XLent and 1.4 nM anti-phospho-(Ser/Thr)-Akt substrate-Eu-cryptate (C is biointernational, France, product No. 61P02KAE), a Europium-cryptate-labelled phospho-(Ser/Thr)-Akt substrate antibody [product #9611B, Cell Signaling Technology, Danvers, Mass., USA]) in aqueous EDTA solution (40 mM EDTA, 400 mM KF, 0.05% (w/v) bovine serum albumin (BSA) in 25 mM HEPES/NaOH pH 7.0).
as §1, with “anti-phospho-(Ser/Thr)-Akt substrate-Eu cryptate” for “Prot-A-EuK”

[4] = biological target: T4, CDK1/CycB (Homo sapiens, UniProt P06493); test: CDK1/CycB kinase assay; format: biochemical; conditions: 0.5 μM ATP, histone IIIS, 33P filter assay
T4 construct: GST; purchased ProQinase GmbH, Freiburg; host or cells: baculovirus-infected insect cells (Sf9)
Procedure: Recombinant CDK1- and CycB-GST fusion proteins, purified from baculovirus-infected insect cells (Sf9), were purchased from ProQinase GmbH, Freiburg. The histone IIIS used as kinase substrate can be purchased from Sigma.
CDK1/CycB (5 ng/μL) was incubated in the presence of various concentrations of test substances (0 μM, and within the range 0.01-100 μM) in 40 μL of assay buffer [50 mM Tris/HCl pH 8.0, 10 mM MgCl2, 0.1 mM Na ortho-vanadate, 1.0 mM dithiothreitol, 0.025% PEG 20000, 0.5 μM ATP, 10 μM histone IIIIS, 0.2 μCi/measurement point ^33P-gamma ATP, 0.05% NP40, 1.25% dimethyl sulphoxide] at 22° C. for 10 min. The reaction was stopped by adding EDTA solution (250 mM, pH 8.0, 15 μl/measurement point).
15 μl of each reaction mixture were loaded onto P30 filter strips (from Wallac), and non-incorporated ^33P-ATP was removed by washing the filter strips three times in 0.5% strength phosphoric acid for 10 min each time. After the filter strips had been dried at 70° C. for 1 hour, the filter strips were covered with scintillator strips (MeltiLex™ A, from Wallac) and baked at 90° C. for 1 hour. The amount of incorporated ^33P (substrate phosphorylation) was determined by scintillation measurement in a gamma radiation counter (Wallac).
The measured data were normalized to 0% inhibition (enzyme reaction without inhibitor) and 100% inhibition (all assay components except enzyme). The IC50 values were determined by means of a 4-parameter fit using the company's own software.

[5] = system: human MCF7 breast tumour cells; test: MCF7 proliferation assay; format: cell-based; conditions: 96 h, 4 days incubation, crystal violet staining
Procedure: Cultivated human MCF7 breast tumour cells (ATCC HTB-22) were plated out in a density of 5000 cells/measurement point in 200 μl of growth medium (RPMI1640, 10% foetal calf serum, 2 mU/mL insulin, 0.1 nM oestradiol) in a 96-well multititre plate. After 24 hours, the cells from a plate (zero plate) were stained with crystal violet (see below), while the medium in the other plates was replaced by fresh culture medium (200 μl) to which the test substances had been added in various concentrations (0 μM, and in the range 0.01-30 μM; the final concentration of the solvent dimethyl sulphoxide was 0.5%). The cells were incubated in the presence of the test substances for 4 days. The cell proliferation was determined by staining the cells with crystal violet: the cells were fixed by adding 20 μl/measurement point of an 11% strength glutaraldehyde solution at room temperature for 15 min. After the fixed cells had been washed three times with water, the plates were dried at room temperature. The cells were stained by adding 100 μl/measurement point of a 0.1% strength crystal violet solution (pH adjusted to pH 3 by adding acetic acid). After the stained cells had been washed three times with water, the plates were dried at room temperature. The dye was dissolved by adding 100 μl/measurement point of a 10% strength acetic acid solution, and the extinction was determined by photometry at a wavelength of 595 nm. The percentage change in cell growth was calculated by normalizing the measurements to the extinctions of the zero point plate (=0%) and the extinction of the untreated (0 μM) cells (=100%). The IC50 values were determined by means of a 4-parameter fit using the company's own software.

T2 sequence (P35968 807-1356 limits assumed): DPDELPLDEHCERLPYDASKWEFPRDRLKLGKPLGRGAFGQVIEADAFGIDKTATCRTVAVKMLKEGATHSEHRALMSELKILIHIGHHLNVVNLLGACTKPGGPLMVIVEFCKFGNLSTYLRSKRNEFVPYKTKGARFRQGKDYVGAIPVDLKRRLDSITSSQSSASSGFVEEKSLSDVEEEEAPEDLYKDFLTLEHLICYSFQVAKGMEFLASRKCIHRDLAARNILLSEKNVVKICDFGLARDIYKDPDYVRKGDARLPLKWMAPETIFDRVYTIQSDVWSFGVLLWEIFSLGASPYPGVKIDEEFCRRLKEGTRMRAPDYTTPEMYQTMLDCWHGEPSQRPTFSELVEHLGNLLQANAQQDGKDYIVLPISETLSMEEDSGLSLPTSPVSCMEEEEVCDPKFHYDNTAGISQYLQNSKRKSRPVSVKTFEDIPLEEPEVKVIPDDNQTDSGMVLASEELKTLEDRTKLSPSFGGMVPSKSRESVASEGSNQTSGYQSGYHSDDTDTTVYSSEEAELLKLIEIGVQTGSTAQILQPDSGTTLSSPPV
T4 sequence (P06493 whole entry): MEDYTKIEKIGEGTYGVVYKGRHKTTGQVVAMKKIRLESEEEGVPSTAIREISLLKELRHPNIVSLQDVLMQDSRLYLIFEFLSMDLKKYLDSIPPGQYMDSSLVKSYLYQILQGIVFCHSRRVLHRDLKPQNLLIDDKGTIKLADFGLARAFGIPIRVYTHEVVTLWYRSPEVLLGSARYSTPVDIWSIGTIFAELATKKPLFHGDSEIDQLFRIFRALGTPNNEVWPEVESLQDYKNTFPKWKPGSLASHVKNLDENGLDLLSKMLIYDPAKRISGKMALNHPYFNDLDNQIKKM
T4 sequence (P14635 whole entry partner): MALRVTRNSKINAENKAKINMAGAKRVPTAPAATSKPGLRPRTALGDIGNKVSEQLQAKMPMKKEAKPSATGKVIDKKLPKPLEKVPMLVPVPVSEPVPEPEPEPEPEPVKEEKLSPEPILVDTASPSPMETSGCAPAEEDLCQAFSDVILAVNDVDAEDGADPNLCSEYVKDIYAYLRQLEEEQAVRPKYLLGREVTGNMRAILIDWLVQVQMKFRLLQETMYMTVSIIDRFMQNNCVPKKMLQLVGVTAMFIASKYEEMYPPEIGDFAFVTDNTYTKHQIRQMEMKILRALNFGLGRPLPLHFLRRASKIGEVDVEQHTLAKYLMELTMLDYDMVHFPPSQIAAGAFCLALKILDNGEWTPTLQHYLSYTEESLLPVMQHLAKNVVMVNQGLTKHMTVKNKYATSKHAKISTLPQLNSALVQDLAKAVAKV

Row | IC50 [1] | IC50 [2] | IC50 [3] | IC50 [4] | IC50 [5] | SMILES
1 | 670 nM | 23 nM | 120 nM |  |  | Brc1cnc(Nc2cccc(Nc3ncc(Br)c(NCCc4c[nH]cn4)n3)c2)nc1NCCc1c[nH]cn1 [Example 28]
2 | 60 nM | 1400 nM |  | 98 nM | 800 nM | Cc1cc(C)nc(Sc2ccc(Nc3ncc(Br)c(O[C@H](C)[C@@H](C)O)n3)cc2)n1 [Example 41]
